Reference: patent US20240043404A1 (AbbVie Inc., priority 2009, published 2024)

Test system: RS4;11 cells
Experiment: RS4;11 cell viability assay (CellTiter Glo);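 also: acute lymphoblastic leukemia line RS4,11, EC50 derived from percentage of viable cells after treatment relative to untreated controls, cell killing taken as a measure of Bcl-2 inhibition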
Format: cell-based, human
Conditions: Homo sapiens, RS4-11, 48 h, 50,000 cells per well, 10% human serum, 48 hours; read-out: RS4; 11 EC50 Values
Method: The acute lymphoblastic leukemia (ALL) cell line RS4;11 was used as the primary human cell line to assess the cellular activity of Bcl-2 selective agents in vitro and their efficacy in vivo.
Cell cytotoxicity EC50 values were assessed using CellTiter Glo (Promega) according to the manufacturer's recommendations. The EC50 values were determined as a percentage of viable cells following treatment compared to the untreated control cells.

SMILES	EC50 [µM]
CO[C@H]1CC[C@@H](COc2ncc(S(=O)(=O)NC(=O)c3ccc(N4CCN(CC5=C(c6ccc(Cl)cc6)CC(C)(C)CC5)CC4)cc3Oc3cnc4[nH]ccc4c3)cc2C(F)(F)F)CC1 [Example 301, 4-(4-{[2-(4-chlorophenyl)-4,4-dimethylcyclohex-1-en-1-yl]methyl}piperazin-1-yl)-N-({6-[(cis-4-methoxycyclohexyl)methoxy]-5-(trifluoromethyl)pyridin-3-yl}sulfonyl)-2-(1H-pyrrolo[2,3-b]pyridin-5-yloxy)benzamide]	> 1
CC1(C)CCC(CN2CCN(c3ccc(C(=O)NS(=O)(=O)c4ccc(N[C@H]5CCN(C6CCOCC6)C5)c([N+](=O)[O-])c4)c(Oc4cnc5[nH]ccc5c4)c3)CC2)=C(c2ccc(Cl)cc2)C1 [Example 132, 4-(4-{[2-(4-chlorophenyl)-4,4-dimethylcyclohex-1-en-1-yl]methyl}piperazin-1-yl)-N-[(3-nitro-4-{[(3S)-1-tetrahydro-2H-pyran-4-ylpyrrolidin-3-yl]amino}phenyl)sulfonyl]-2-(1H-pyrrolo[2,3-b]pyridin-5-yloxy)benzamide]	0.0221
CC1(C)CCC(CN2CCN(c3ccc(C(=O)NS(=O)(=O)c4cnc(OCC5(F)CCOCC5)c(F)c4)c(Oc4cnc5[nH]ccc5c4)c3)CC2)=C(c2ccc(Cl)cc2)C1 [Example 248, 4-(4-{[2-(4-chlorophenyl)-4,4-dimethylcyclohex-1-en-1-yl]methyl}piperazin-1-yl)-N-({5-fluoro-6-[(4-fluorotetrahydro-2H-pyran-4-yl)methoxy]pyridin-3-yl}sulfonyl)-2-(1H-pyrrolo[2,3-b]pyridin-5-yloxy)benzamide]	0.0996
CN1CCC(Nc2ccc(S(=O)(=O)NC(=O)c3ccc(N4CCN(CC5=C(c6ccc(Cl)cc6)CC(C)(C)OC5)CC4)cc3Oc3cnc4[nH]ccc4c3)cc2S(=O)(=O)C(F)(F)F)CC1 [Example 45, 4-(4-{[4-(4-chlorophenyl)-6,6-dimethyl-5,6-dihydro-2H-pyran-3-yl]methyl}piperazin-1-yl)-N-({4-[(1-methylpiperidin-4-yl)amino]-3-[(trifluoromethyl)sulfonyl]phenyl}sulfonyl)-2-(1H-pyrrolo[2,3-b]pyridin-5-yloxy)benzamide]	0.00992
CC1(C)CCC(CN2CCN(c3ccc(C(=O)NS(=O)(=O)c4ccc(OCC5(F)CCOCC5)c(C(F)(F)F)c4)c(Oc4cnc5[nH]ccc5c4)c3)CC2)=C(c2ccc(Cl)cc2)C1 [Example 307, 4-(4-{[2-(4-chlorophenyl)-4,4-dimethylcyclohex-1-en-1-yl]methyl}piperazin-1-yl)-N-({4-[(4-fluorotetrahydro-2H-pyran-4-yl)methoxy]-3-(trifluoromethyl)phenyl}sulfonyl)-2-(1H-pyrrolo[2,3-b]pyridin-5-yloxy)benzamide]	0.128
CC1(C)CCC(CN2CCN(c3ccc(C(=O)NS(=O)(=O)c4ccc(N[C@@H]5CCN(C(CF)CF)C5)c(S(=O)(=O)C(F)(F)F)c4)c(Oc4cnc5[nH]ccc5c4)c3)CC2)=C(c2ccc(Cl)cc2)C1 [Example 225, 4-(4-{[2-(4-chlorophenyl)-4,4-dimethylcyclohex-1-en-1-yl]methyl}piperazin-1-yl)-N-[(4-{[(3R)-1-(1,3-difluoropropan-2-yl)pyrrolidin-3-yl]amino}-3-[(trifluoromethyl)sulfonyl]phenyl)sulfonyl]-2-(1H-pyrrolo[2,3-b]pyridin-5-yloxy)benzamide]	0.56
CC1(C)CCC(CN2CCN(c3ccc(C(=O)NS(=O)(=O)c4ccc(N[C@@H]5CC[C@H](N6CCOCC6)C5)c([N+](=O)[O-])c4)c(Oc4cnc5[nH]ccc5c4)c3)CC2)=C(c2ccc(Cl)cc2)C1 [Example 112, 4-(4-{[2-(4-chlorophenyl)-4,4-dimethylcyclohex-1-en-1-yl]methyl}piperazin-1-yl)-N-[(4-{[(1R,3S)-3-morpholin-4-ylcyclopentyl]amino}-3-nitrophenyl)sulfonyl]-2-(1H-pyrrolo[2,3-b]pyridin-5-yloxy)benzamide]	0.0206
CC1(C)CCC(CN2CCN(c3ccc(C(=O)NS(=O)(=O)c4cnc(OCCN5CCOCC5)c(C#N)c4)c(Oc4cnc5[nH]ccc5c4)c3)CC2)=C(c2ccc(Cl)cc2)C1 [Example 57, 4-(4-{[2-(4-chlorophenyl)-4,4-dimethylcyclohex-1-en-1-yl]methyl}piperazin-1-yl)-N-{[5-cyano-6-(2-morpholin-4-ylethoxy)pyridin-3-yl]sulfonyl}-2-(1H-pyrrolo[2,3-b]pyridin-5-yloxy)benzamide]	0.426
CC1(C)CCC(CN2CCN(c3ccc(C(=O)NS(=O)(=O)c4ccc(NC[C@H]5CC[C@H](C#N)CC5)c([N+](=O)[O-])c4)c(Oc4cnc5[nH]ccc5c4)c3)CC2)=C(c2ccc(Cl)cc2)C1 [Example 276, 4-(4-{[2-(4-chlorophenyl)-4,4-dimethylcyclohex-1-en-1-yl]methyl}piperazin-1-yl)-N-[(4-{[(trans-4-cyanocyclohexyl)methyl]amino}-3-nitrophenyl)sulfonyl]-2-(1H-pyrrolo[2,3-b]pyridin-5-yloxy)benzamide]	0.0035
CC1(C)CCC(CN2CCN(c3ccc(C(=O)NS(=O)(=O)c4ccc(OCC5C[C@H]6C=C[C@@H]5C6)c([N+](=O)[O-])c4)c(Oc4cnc5[nH]ccc5c4)c3)CC2)=C(c2ccc(Cl)cc2)C1 (stereo partly drawn) [Example 201, N-({4-[(1S,4S)-bicyclo[2.2.1]hept-5-en-2-ylmethoxy]-3-nitrophenyl}sulfonyl)-4-(4-{[2-(4-chlorophenyl)-4,4-dimethylcyclohex-1-en-1-yl]methyl}piperazin-1-yl)-2-(1H-pyrrolo[2,3-b]pyridin-5-yloxy)benzamide]	0.591
CC1(C)CCC(CN2CCN(c3ccc(C(=O)NS(=O)(=O)c4ccc5ccccc5c4)c(Oc4cnc5[nH]ccc5c4)c3)CC2)=C(c2ccc(Cl)cc2)C1 [Example 14, 4-(4-{[2-(4-chlorophenyl)-4,4-dimethylcyclohex-1-en-1-yl]methyl}piperazin-1-yl)-N-(2-naphthylsulfonyl)-2-(1H-pyrrolo[2,3-b]pyridin-5-yloxy)benzamide]	3.89
CC1(C)CCC(CN2CCN(c3ccc(C(=O)NS(=O)(=O)c4ccc(NCC5CCC(C)(C#N)CC5)c([N+](=O)[O-])c4)c(Oc4cnc5[nH]ccc5c4)c3)CC2)=C(c2ccc(Cl)cc2)C1 (stereo not shown) [Example 366, 4-(4-{[2-(4-chlorophenyl)-4,4-dimethylcyclohex-1-en-1-yl]methyl}piperazin-1-yl)-N-[(4-{[(4-cyano-4-methylcyclohexyl)methyl]amino}-3-nitrophenyl)sulfonyl]-2-(1H-pyrrolo[2,3-b]pyridin-5-yloxy)benzamide]	0.0165
COCCOCCS(=O)(=O)c1ccc(S(=O)(=O)NC(=O)c2ccc(N3CCN(CC4=C(c5ccc(Cl)cc5)CC(C)(C)CC4)CC3)cc2Oc2cnc3[nH]ccc3c2)cc1[N+](=O)[O-] [Example 59, 4-(4-{[2-(4-chlorophenyl)-4,4-dimethylcyclohex-1-en-1-yl]methyl}piperazin-1-yl)-N-[(4-{[2-(2-methoxyethoxy)ethyl]sulfonyl}-3-nitrophenyl)sulfonyl]-2-(1H-pyrrolo[2,3-b]pyridin-5-yloxy)benzamide]	0.722
CC1(C)CCC(CN2CCN(c3ccc(C(=O)NS(=O)(=O)c4ccc(OCC5COCCN5)c([N+](=O)[O-])c4)c(Oc4cnc5[nH]ccc5c4)c3)CC2)=C(c2ccc(Cl)cc2)C1 (stereo not shown) [Example 78, 4-(4-{[2-(4-chlorophenyl)-4,4-dimethylcyclohex-1-en-1-yl]methyl}piperazin-1-yl)-N-{[4-(morpholin-3-ylmethoxy)-3-nitrophenyl]sulfonyl}-2-(1H-pyrrolo[2,3-b]pyridin-5-yloxy)benzamide]	0.0125
CC1(C)C=CC(c2ccc(Cl)cc2)=C(CN2CCN(c3ccc(C(=O)NS(=O)(=O)c4ccc(NCC5CCOCC5)c([N+](=O)[O-])c4)c(Oc4cnc5[nH]ccc5c4)c3)CC2)C1 [Example 206, 4-(4-{[2-(4-chlorophenyl)-5,5-dimethylcyclohexa-1,3-dien-1-yl]methyl}piperazin-1-yl)-N-({3-nitro-4-[(tetrahydro-2H-pyran-4-ylmethyl)amino]phenyl}sulfonyl)-2-(1H-pyrrolo[2,3-b]pyridin-5-yloxy)benzamide]	0.0529
CC1(C)CCC(CN2CCN(c3ccc(C(=O)NS(=O)(=O)c4ccc(OC[C@@H]5CC(F)(F)CN5C5COC5)c([N+](=O)[O-])c4)c(Oc4cnc5[nH]ccc5c4)c3)CC2)=C(c2ccc(Cl)cc2)C1 [Example 168, 4-(4-{[2-(4-chlorophenyl)-4,4-dimethylcyclohex-1-en-1-yl]methyl}piperazin-1-yl)-N-[(4-{[(2S)-4,4-difluoro-1-oxetan-3-ylpyrrolidin-2-yl]methoxy}-3-nitrophenyl)sulfonyl]-2-(1H-pyrrolo[2,3-b]pyridin-5-yloxy)benzamide]	0.0887
CC1(C)CCC(CN2CCN(c3ccc(C(=O)NS(=O)(=O)c4ccc(NCCCN(CC(F)(F)F)C5CC5)c([N+](=O)[O-])c4)c(Oc4cnc5[nH]ccc5c4)c3)CC2)=C(c2ccc(Cl)cc2)C1 [Example 308, 4-(4-{[2-(4-chlorophenyl)-4,4-dimethylcyclohex-1-en-1-yl]methyl}piperazin-1-yl)-N-{[4-({3-[cyclopropyl(2,2,2-trifluoroethyl)amino]propyl}amino)-3-nitrophenyl]sulfonyl}-2-(1H-pyrrolo[2,3-b]pyridin-5-yloxy)benzamide]	0.257
CC1(C)CCC(CN2CCN(c3ccc(C(=O)NS(=O)(=O)c4ccc(NC[C@@H]5CCN(C6CCOCC6)C5)c([N+](=O)[O-])c4)c(Oc4cnc5[nH]ccc5c4)c3)CC2)=C(c2ccc(Cl)cc2)C1 [Example 145, 4-(4-{[2-(4-chlorophenyl)-4,4-dimethylcyclohex-1-en-1-yl]methyl}piperazin-1-yl)-N-{[3-nitro-4-({[(3S)-1-tetrahydro-2H-pyran-4-ylpyrrolidin-3-yl]methyl}amino)phenyl]sulfonyl}-2-(1H-pyrrolo[2,3-b]pyridin-5-yloxy)benzamide]	0.004
COC1(Cc2ccccc2-c2ccc(Cl)cc2)CCN(c2ccc(C(=O)NS(=O)(=O)c3ccc(NCC4CCOCC4)c([N+](=O)[O-])c3)c(Oc3cnc4[nH]ccc4c3)c2)CC1 [Example 264, 4-{4-[(4′-chlorobiphenyl-2-yl)methyl]-4-methoxypiperidin-1-yl}-N-({3-nitro-4-[(tetrahydro-2H-pyran-4-ylmethyl)amino]phenyl}sulfonyl)-2-(1H-pyrrolo[2,3-b]pyridin-5-yloxy)benzamide]	0.689
